In one series the test system is Lactuca sativa. Kind of series: Inhibition of Lactuca sativa (lettuce) seed germination assessed as elongation of root by measuring germination rate (reference value: 75%). It counts as functional.
The nature of series [1]: Toxicity in Artemia salina (brine shrimp) assessed as death rate after 1.5 days (reference value: 5%). It counts as organism-based. The note with it: in vivo, read-out: Activity.

Here are results for 6 compounds from ChEMBL document CHEMBL3045764, “Synthesis of Both Enantiomers of Altholactone, Isoaltholactone and 5-Hydroxygoniothalamin from Tri-O-acetyl-D-glucal, and Their Biological Activities” (J Pestic Sci, 2001).

As to `O=C1C=C[C@H]2O[C@H](c3ccccc3)[C@H](O)[C@@H]2O1`, the “inhibition (INH)” value in the series on Lactuca sativa came out at 56%. The mortality at 36 h in series [1] worked out at 31%.

As to `O=C1C=C[C@H]2O[C@H](c3ccccc3)[C@@H](O)[C@@H]2O1`, in the series with Lactuca sativa, the “inhibition (INH)” value is on record as 63%. Moreover, the mortality at 36 h in series [1] is 48%.

For the compound `O=C1C=C[C@@H]2O[C@H](c3ccccc3)[C@H](O)[C@@H]2O1` [(+)-ISOALTHOLACTONE], in the series on Lactuca sativa, the “inhibition (INH)” value stood at 25%. Further, the mortality at 36 h in series [1] was found to be 13%.

For the compound `O=C1C=C[C@@H]2O[C@H](c3ccccc3)[C@@H](O)[C@@H]2O1` [ALTHOLACTONE], in the series on Lactuca sativa, the “inhibition (INH)” value is given as 50%. Moreover, the mortality at 36 h in series [1] was determined as 40%.

On to `O=C1C=C[C@H]2O[C@@H](c3ccccc3)[C@H](O)[C@H]2O1` [ENT-ALTHOLACTONE], for which the “inhibition (INH)” value in the series with Lactuca sativa is recorded as 5%. Also, in series [1], the mortality at 36 h is 31%.

`O=C1C=C[C@H]2O[C@H](c3ccccc3)[C@@H](O)[C@H]2O1` [ENT-ISOALTHOLACTONE]: the “inhibition (INH)” value in the series with Lactuca sativa is listed as 69%. Besides, the mortality at 36 h in series [1] stood at 8%.
